For the test, the target named is Bromodomain-containing protein 4 (Homo sapiens, UniProt O60885). Kind of test: Inhibitory Activity Assay of BRD4 Small Molecule Compounds: AlphaScreen kit (Perkin Elmer) was used to detect effect of the compounds on binding of BRD4 bromodomain to acetylated histone H4 polypeptide. […] Each of fusion proteins containing (His)6tag can be recognized and bound by Ni2+. […] The donor microbeads were coated with streptavidin and can bind to biotinylated acetylated H4 polypeptide. The acceptor microbeads were coated with Ni2+ ions and can bind to the BD1 protein with (His)6tag. When the BD1 protein recognized the acetylated H4 polypeptide, the donor microbeads and the acceptor microbeads can be brought closer to a certain distance. Within this range, the donor microbeads can produce singlet oxygen after being irradiated with a 680 nm excitation light, and transfer the singlet oxygen to the acceptor microbeads. After a series of cascade chemical reactions, the acceptor microbeads will generate an emission wave of 520-620 nm, which in turn can be detected a signal. In this experiment, the test system was 20 μL, and the compound needs to be diluted in buffer 1 (20 mM HEPES pH 7.4, 150 mM NaCl, 1 mM dithiothreitol). First, a solution of 20 mM compound was consecutively diluted twice, each in 10 times, totally in 100 times to a concentration of 200 μM. […] The recombinant BD1 protein solution and the acetylated histone H4 polypeptide were diluted in the buffer 2 (20 mM HEPES pH 7.4, 150 mM NaCl, 0.01% Triton X-100, 0.1% bovine serum protein (w/v, Sigma), 1 mM dithiothreitol) to 100 nM and 100 nM respectively, to obtain a 8×BD1 protein working solution and a 4× acetylated histone H4 polypeptide working solution. The donor microbeads and the acceptor microbeads are diluted together in the buffer 2, both in the ratio of 1:100, to obtain a 2× microbead mixed working solution. The plate was added with 2.5 μL of BD1 protein working solution and incubated with the compound for 20 min at room temperature, and then added with 5 μL of acetylated histone H4 polypeptide working solution and incubated at room temperature for 5 min, and finally added with 10 μL of microbead mixed working solution and incubated at room temperature for 60 min. […] IC50 values of the compounds at different concentrations for inhibiting the binding of BD1 protein to acetylated H4 polypeptide were calculated by fitting using GraphPad Prism 5.0 software.
Consider `Cc1cc(-c2cc(NS(C)(=O)=O)ccc2Oc2ccccc2)n2c1C(=O)NCC2`, for which the IC50 – broadly, the point on the concentration scale where inhibition reaches its midpoint – is 0.0769 µM. On to `Cc1cc(-c2cc(S(C)(=O)=O)ccc2Oc2ccc(F)cc2F)n2cc[nH]c(=O)c12`, for which the IC50 was 0.132 µM. Next, `Cc1cc(-c2ccccc2Oc2ccccc2)n2cc[nH]c(=O)c12`: 0.905 µM.

`Cc1cc(-c2cc(CS(C)(=O)=O)ccc2Nc2ccc(F)cc2F)n2cc[nH]c(=O)c12`: the IC50 was 0.161 µM. Next, `Cc1cc(-c2ccccc2Oc2ccccc2)n2nc[nH]c(=O)c12`: 0.91 µM. Then `Cc1cc(-c2cc(NS(C)(=O)=O)ccc2Oc2ccccc2)n2cn[nH]c(=O)c12`, with 0.114 µM; and `Cc1ccccc1Oc1ccc(NS(C)(=O)=O)cc1-c1cc(C)c2c(=O)[nH]ccn12`, with 0.119 µM; and `Cc1cc(-c2cc(NS(C)(=O)=O)ccc2OC2CCOCC2)n2cn[nH]c(=O)c12`, with 0.124 µM. Then `Cc1cc(-c2cc(NS(C)(=O)=O)ccc2OCC2CC2)n2cn[nH]c(=O)c12`, with 0.471 µM; and `Cc1cc(-c2cc(S(C)(=O)=O)ccc2Oc2ccccc2)n2cc[nH]c(=O)c12`, with 0.134 µM. `Cc1cc(-c2cc(NS(C)(=O)=O)ccc2Oc2ccc(F)cc2F)n2cn[nH]c(=O)c12`: the IC50 was 0.0926 µM.

In the case of `Cc1cc(-c2cc(CS(C)(=O)=O)ccc2Nc2ccccc2)n2cc[nH]c(=O)c12`, the IC50 is 0.138 µM.

Take `CCS(=O)(=O)c1ccc(Oc2ccccc2C)c(-c2cc(C)c3c(=O)[nH]ccn23)c1`: the IC50 is 0.131 µM. Then `Cc1cc(-c2cc(CS(C)(=O)=O)ccc2Oc2ccc(F)cc2F)n2cn[nH]c(=O)c12`, with 0.0045 µM. Next, `Cc1cc(-c2cc(NS(C)(=O)=O)ccc2Oc2ccccc2)n2nc[nH]c(=O)c12`: 0.434 µM.

Source of the values: ChEMBL document CHEMBL5729292, “Bromodomain inhibitor compound and use thereof” (2022).
